Data on nine compounds can be found in ChEMBL document CHEMBL1128205, “Design and synthesis of conformationally constrained analogues of 4-(3-butoxy-4-methoxybenzyl)imidazolidin-2-one (Ro 20-1724) as potent inhibitors of cAMP-specific phosphodiesterase” (J Med Chem, 1995).

The Ki is a dissociation constant, usually derived from enzyme kinetics or from competition with a known ligand. Higher therefore signals lower affinity. As usually defined, the IC50 is the concentration needed to halve the response being measured. Read a low IC50 as inhibition by little substance.

Sequence of 3',5'-cyclic-AMP phosphodiesterase 4B (Q07343 whole entry): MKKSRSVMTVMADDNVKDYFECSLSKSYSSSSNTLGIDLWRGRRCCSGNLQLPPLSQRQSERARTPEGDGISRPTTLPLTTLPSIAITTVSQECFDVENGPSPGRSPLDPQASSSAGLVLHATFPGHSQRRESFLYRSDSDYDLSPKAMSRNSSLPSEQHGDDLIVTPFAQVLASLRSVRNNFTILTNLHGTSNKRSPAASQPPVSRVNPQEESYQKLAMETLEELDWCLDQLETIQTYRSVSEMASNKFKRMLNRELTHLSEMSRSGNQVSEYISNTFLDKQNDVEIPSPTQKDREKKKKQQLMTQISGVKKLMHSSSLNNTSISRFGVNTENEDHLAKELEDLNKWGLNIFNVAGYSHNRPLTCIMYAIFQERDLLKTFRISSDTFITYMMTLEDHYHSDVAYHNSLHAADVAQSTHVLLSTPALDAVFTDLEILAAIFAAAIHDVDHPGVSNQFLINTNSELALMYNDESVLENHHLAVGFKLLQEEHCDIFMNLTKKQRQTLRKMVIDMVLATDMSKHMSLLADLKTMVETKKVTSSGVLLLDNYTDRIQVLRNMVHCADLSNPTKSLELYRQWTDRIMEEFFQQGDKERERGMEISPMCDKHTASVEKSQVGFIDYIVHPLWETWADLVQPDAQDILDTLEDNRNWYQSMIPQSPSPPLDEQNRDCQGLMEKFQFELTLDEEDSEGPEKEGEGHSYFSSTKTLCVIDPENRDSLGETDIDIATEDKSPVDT

One experiment concerns the target 3',5'-cyclic-AMP phosphodiesterase 4B (Homo sapiens, UniProt Q07343). As to the kind of experiment: Inhibition of human Phosphodiesterase 4B.
As for `COc1ccc([C@H]2CCN3C(=O)OC[C@@H]23)cc1OC1CCCC1`, affinity was put at a Ki of 282 nM.

`COc1ccc(CC2CNC(=O)N2)cc1OC1CCCC1` (stereo not given) gave a Ki of 447 nM. This Ki is about 1.6-fold higher than that of the compound before.

`COc1ccc([C@H]2CCN3C(=O)CC[C@H]23)cc1OC1CCCC1` registered a Ki of 63 nM.

For `COc1ccc([C@H]2CCN3C(=O)NC[C@H]23)cc1OC1CCCC1`, the affinity, expressed as Ki, was 27 nM. This Ki lies about 2.3-fold lower than the previous one.

Turning to `COc1ccc([C@H]2CCN3C(=O)NC[C@@H]23)cc1OC1CCCC1`, the Ki was 583 nM.

As to `COc1ccc([C@H]2CCN3C(=O)OC[C@H]23)cc1OC1CCCC1`, the affinity corresponds to a Ki of 70 nM.

As for `COc1ccc([C@H]2CCN3C(=O)CC[C@@H]23)cc1OC1CCCC1`, the Ki came out at 338 nM. Against the preceding compound, the Ki is about 4.8-fold higher.

The species entered for the next experiment is Homo sapiens. As to the kind of experiment: Inhibition of LPS-induced TNF-alpha secretion from purified human peripheral blood monocytes. It is filed as functional.
Compound `COc1ccc(C2CNC(=O)C2)cc1OC1CCCC1` (stereo not given) [ROLIPRAM] showed a half-maximal inhibitory concentration (IC50) of 320 nM.

For the compound `COc1ccc([C@H]2CCN3C(=O)NC[C@H]23)cc1OC1CCCC1`, 290 nM corresponded to half-maximal inhibition (IC50).

Turning to `CCCCOc1cc(CC2CNC(=O)N2)ccc1OC` (stereo not given) [RO-201724], the midpoint of inhibition, the IC50, lay at 1800 nM. This IC50 lies about 6.2-fold higher than the previous one.
